Reference: the NIST ThermoML archive (doi:10.1016/j.jct.2019.04.010)

Assay: xn = mol fraction of the nth substance listed
Details: 100 kPa, Liquid; for viscosity: Concentric cylinders viscometry; for mass density: Vibrating tube method

CCCCn1cc[n+](C)c1.O=[N+]([O-])[O-] [1-butyl-3-methylimidazolium nitrate] + CCCC(C)O
Details	mass density [kg/m3]	viscosity [mPa·s]
293.15 K, x1 = 0.0812	854	4.47
293.15 K, x1 = 0.1604	893.6	5.28
293.15 K, x1 = 0.2403	929.8	6.43
293.15 K, x1 = 0.3499	974.3	9.03
293.15 K, x1 = 0.4399	1007.1	12.56
293.15 K, x1 = 0.5604	1046.7	20.29
293.15 K, x1 = 0.6505	1073.3	30.81
293.15 K, x1 = 0.7405	1097.8	47.6
293.15 K, x1 = 0.8501	1124.9	83.3
293.15 K, x1 = 0.9396	1145.3	143.6
293.15 K, x1 = 1	1158.3	223.54
298.15 K, x1 = 0.0812	850.4	3.69
298.15 K, x1 = 0.1604	890.1	4.35
298.15 K, x1 = 0.2403	926.4	5.39
298.15 K, x1 = 0.3499	971.1	7.59
298.15 K, x1 = 0.4399	1004	10.53
298.15 K, x1 = 0.5604	1043.5	17.14
298.15 K, x1 = 0.6505	1070.3	25.47
298.15 K, x1 = 0.7405	1094.8	37.96
298.15 K, x1 = 0.8501	1122	63.4
298.15 K, x1 = 0.9396	1142.3	105.6
298.15 K, x1 = 1	1155.2	168.97
303.15 K, x1 = 0.0812	846.5	3.16
303.15 K, x1 = 0.1604	886.5	3.72
303.15 K, x1 = 0.2403	922.9	4.65
303.15 K, x1 = 0.3499	967.8	6.64
303.15 K, x1 = 0.4399	1000.7	9.14
303.15 K, x1 = 0.5604	1040.5	14.61
303.15 K, x1 = 0.6505	1067.4	21.35
303.15 K, x1 = 0.7405	1092.1	31.14
303.15 K, x1 = 0.8501	1119.3	50.3
303.15 K, x1 = 0.9396	1139.5	81.8
303.15 K, x1 = 1	1152.3	125.36
308.15 K, x1 = 0.0812	842.8	2.74
308.15 K, x1 = 0.1604	882.7	3.25
308.15 K, x1 = 0.2403	919.4	4.08
308.15 K, x1 = 0.3499	964.4	5.73
308.15 K, x1 = 0.4399	997.5	7.89
308.15 K, x1 = 0.5604	1037.4	12.37
308.15 K, x1 = 0.6505	1064.4	17.74
308.15 K, x1 = 0.7405	1089.1	25.35
308.15 K, x1 = 0.8501	1116.3	40
308.15 K, x1 = 0.9396	1136.5	63.4
308.15 K, x1 = 1	1149.3	96.74
313.15 K, x1 = 0.0812	838.8	2.3
313.15 K, x1 = 0.1604	879.2	2.8
313.15 K, x1 = 0.2403	916	3.55
313.15 K, x1 = 0.3499	961.2	5.05
313.15 K, x1 = 0.4399	994.4	6.97
313.15 K, x1 = 0.5604	1034.4	10.51
313.15 K, x1 = 0.6505	1061.4	14.75
313.15 K, x1 = 0.7405	1086.1	20.64
313.15 K, x1 = 0.8501	1113.4	31.9
313.15 K, x1 = 0.9396	1133.8	50
313.15 K, x1 = 1	1146.5	75.12
318.15 K, x1 = 0.0812	834.7	1.95
318.15 K, x1 = 0.1604	875.2	2.4
318.15 K, x1 = 0.2403	912.1	3.05
318.15 K, x1 = 0.3499	957.5	4.37
318.15 K, x1 = 0.4399	990.9	5.91
318.15 K, x1 = 0.5604	1031.1	8.91
318.15 K, x1 = 0.6505	1058.3	12.21
318.15 K, x1 = 0.7405	1083.2	17.09
318.15 K, x1 = 0.8501	1110.7	26.5
318.15 K, x1 = 0.9396	1131	40
318.15 K, x1 = 1	1143.8	56.28
323.15 K, x1 = 0.0812	830.7	1.66
323.15 K, x1 = 0.1604	871.4	1.99
323.15 K, x1 = 0.2403	908.7	2.49
323.15 K, x1 = 0.3499	954.3	3.56
323.15 K, x1 = 0.4399	987.9	4.81
323.15 K, x1 = 0.5604	1028.2	7.13
323.15 K, x1 = 0.6505	1055.5	9.68
323.15 K, x1 = 0.7405	1080.5	13.67
323.15 K, x1 = 0.8501	1108.1	21.47
323.15 K, x1 = 0.9396	1128.4	32.3
323.15 K, x1 = 1	1141.2	45.17
